# Experimental data from patent US20250017948A1, “CANNABINOID COMPOSITIONS FOR GASTROESOPHAGEAL DISORDERS” (THE UNITED STATES GOVERNMENT AS REPRESENTED BY THE …, priority 2021, published 2025).
# Tests used:
# Assay type in all cases: cell-based, human
# HET1a = details: for effect on DCA-induced mitochondrial membrane depolarization: treated prior to and during DCA exposure, FIG. 1C-1D, combination at 1:5
# Method: MitoProbe JC-1 Assay Kit for Flow Cytometry (cat #M34152, ThermoFisher, Massachusetts, USA) was used to measure the mitochondrial membrane potential. Depending on the experimental group, cells were pre-treated with the CBG/Phytol admixture or DMSO and incubated for 2 hours at 37° C. in a CO2 incubator. Cells were then treated with DCA with the CBG/Phytol admixture or DMSO. After treatment, cell were loaded with 2 μM of JC-1 and incubated for 15 minutes at 37° C. Cytoplasmic JC-1 monomers were detected in the green spectrum (˜529 nm) while mitochondrial J-aggregates were detected in the red spectrum (˜590 nm). Results are representative of 2 and 3 independent repeats per cell line.
# These concentrations of DCA are found in esophageal aspirates of patients with GERD.
# Various ratios of the combination of CBG and phytol were explored to assess DCA-induced mitochondrial membrane depolarization.
# [1] = tested on: CP-A Barrett's esophagus cells; experiment: ROS by CM-DCFDA fluorescence after low pH and bile acid cocktail (GER); details: FIG. 6F
# Method: The cannabinoids referenced in the following examples were purchased from Cayman Chemical and brought up to a stock concentration of 100 mM in DMSO. Terpenes were purchased from Sigma Aldrich. Bile acid cocktail consisted of an equimolar mixture of glycocholate, taurocholate, glycodeoxycholate, glycochenodeoxycholate, and deoxycholate at a final concentration of 0.2 mM. This cocktail reflects the mixture of bile acids to which the distal esophagus is ordinarily exposed during gastroesophageal reflux
# Combinations of cannabinoids/terpenes were tested to determine whether they protected cells in the esophagus following acute exposure to a low pH environment (pH4.5) combined with a bile acid cocktail comprised of multiple physiologically-relevant secondary bile acids, which mimics the caustic environment during gastroesophageal reflux (GER). […] The cells were either immediately analyzed for ROS via fluorescent detection of CM-DCFDA or recovered for 24 hours and analyzed for DNA damage, via γ-H2AX. […] Furthermore, the combination of CBG and β-caryophyllene was tested in the residual cells and harvested 24 h post-treatment for assessment of DNA damage to obtain the γ-H2AX fluorescence plots in FIG. 6E. […]
# HET1A cells [2] = experiment: Muse Multi-Color DNA Damage kit (ATM and H2AX activation); details: preliminary screen, FIG. 1B; cannabinoid:terpene 1:5, with DCA
# Method: The activation of ATM and H2AX (a marker of DNA breaks) was measured using the Muse Multi-Color DNA Damage kit (MilliporeSigma, Burlington, MA, USA) according to the manufacturer's instructions. The percentage of ATM activated cells and H2AX activated cells was determined as dual activation by monitoring expression of both the ATM and γ-H2AX, using the Muse Cell Analyzer (MilliporeSigma, Burlington, MA, USA). Expression of γ-H2AX was determined by flow cytometry on an Accuri C6 flow cytometer following manufacturer protocol (MilliporeSigma, Burlington, MA, USA).
# Combinations of terpenes and cannabinoids were introduced to assess the effect on DNA damage using the Muse Multicolor DNA Damage Kit (see methods for details). Based on a preliminary screen shown in FIG. 1B, it was concluded that DCA induced the highest proportion of DNA damage, along with the addition of […] (THC) containing groups, >5% vs. an untreated group.
# HET1A cells [3] = experiment: Cell viability via XTT assay; details: DCA for 24 hours, then fresh media; FIG. 4A
# Method: Cells were cultured prior to exposure to the indicated test articles. After treatment, as indicated, cells were washed and resuspended in a phenol red-free RPMI or DMEM and subsequently treated with the XTT assay (ThermoFisher, Waltham, MA, USA) or the MTS assay (Promega, Madison, WI, USA) following manufacturer protocols.
# In this example, the role of CBG and Phytol on hallmarks of apoptosis resistance is described. […] Cells were pretreated with or without CBG/Phytol and then treated with DCA or a vehicle control for 24 hours. On the following day, the cells were incubated with fresh media, without DCA, and with or without CBG and/or Phytol. Cell viability was determined via XTT assay.
# HET1A cells [4] = experiment: Genomic instability: new copy number events on PMDA arrays; details: daily treatment 14 days; DCA 100 μM; CBG/Phytol 1:5; baseline Day 0 genome
# Method: The impact of phytocannabinoids on acquisition of new genomic changes over time in human esophageal cells was assessed using Axiom™ Precision Medicine Diversity Arrays (PMDA; Affymetrix). HET1a cells, plated in T-150 flasks at a seeding density of 2,500 cells per cm^2, were divided into 4 experimental groups (n=2 each): (i) DMSO-treated controls, (ii) treated with 100 μM of DCA alone, (iii) treated with CBG/Phytol admixture alone, and (iv) treated with 100 μM of DCA and CBG/Phytol admixture. DCA and/or CBG/Phytol were freshly prepared daily by dissolving in DMSO and then added to the media. These cells were cultured for 14 consecutive days. […]
# Based on the examples above, it was hypothesized that increased stress-induced apoptosis along with reduced DNA damage and mitochondrial disruption may be concordant to reduced genomic instability. […] DNA from cultured and Day 0 cells was extracted and analyzed using PMDA arrays (Affymetrix). Genomic instability in cultured cells was assessed by identifying new copy number events (both deletions and amplifications), using genome of “Day 0” cells as baseline. […] Compared to control cells, DCA induced a marked (>6-fold) increase in genomic instability, as assessed from the acquisition of new copy number events over a period of […]. […]
smiles,measurement,setting,value
C/C(=C\CO)CCC[C@H](C)CCC[C@H](C)CCCC(C)C [phytol],effect on DCA-induced mitochondrial membrane depolarization,HET1a,not reproduced by either compound alone in a statistically significant manner
"CCCCCc1cc(O)c(C/C=C(\C)CCC=C(C)C)c(O)c1 [CBG, cannabigerol]",effect on DCA-induced mitochondrial membrane depolarization,HET1a,not reproduced by either compound alone in a statistically significant manner
"C[C@H](CCC(=O)O)[C@H]1CC[C@H]2[C@@H]3[C@@H](O)C[C@@H]4C[C@H](O)CC[C@]4(C)[C@H]3CC[C@]12C [UDCA, ursodeoxycholic acid]","mitigation of the oxidative insult of GER (CM-DCFDA fluorescence), comparison with catalase and UDCA",[1],protective effect
"C[C@H](CCC(=O)O)[C@H]1CC[C@H]2[C@@H]3CC[C@@H]4C[C@H](O)CC[C@]4(C)[C@H]3C[C@H](O)[C@]12C [DCA, deoxycholic acid]",proportion of DNA damage (% ATM and H2AX positive cells) vs. an untreated group,HET1A cells [2],> 5%
same,dose sufficient to induce membrane polarization,"HET1a; acute exposure to DCA, JC-1 red/green",100 µM
same,dosing that induced severe mitochondrial membrane depolarization and cellular apoptosis,HET1a; human,above 300 μM
same,number of cells after DCA alone,HET1A cells [3],significant reduction in number of cells by 48 hours
same,increase in genomic instability (new copy number events) compared to control cells,HET1A cells [4],> 6 fold
